Measurements taken from PubChem BioAssay (NCI).
Several values for one entry are separate records, joined by “and”; a condition that tells them apart may be missing. Equal values may be shown once.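 Where inhibition never reached the appropriate level, the endpoint shown equals the highest concentration tested. Otherwise, values were interpolated linearly from a five-concentration, 48-hour dose response in 96-well plates. The concentration for 50% growth inhibition is given as GI50. TGI denotes the concentration required for complete inhibition of growth.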

Columns and labels:
Test in all cases: growth of human tumour cells (NCI), 48 h
DLD-1 colon = system: DLD-1 colon
LXFL 529 NSCLC = system: LXFL 529 NSCLC
NCI-H23 lung = system: NCI-H23 lung
OVCAR-8 ovarian = system: OVCAR-8 ovarian
SK-MEL-28 melanoma = system: SK-MEL-28 melanoma
UACC-62 melanoma = system: UACC-62 melanoma
UO-31 renal = system: UO-31 renal
SF-268 CNS = system: SF-268 CNS
BT-549 breast = system: BT-549 breast
PC-3 prostate = system: PC-3 prostate

## CCOC(=O)C1=C(C)N(Cc2ccccc2)C(=O)C1CC#N (centres undefined)
DLD-1 colon
  TGI: > 100 µM
LXFL 529 NSCLC
  TGI: > 100 µM
NCI-H23 lung
  TGI: > 100 µM
OVCAR-8 ovarian
  TGI: > 100 µM
SK-MEL-28 melanoma
  TGI: > 100 µM
UACC-62 melanoma
  TGI: > 100 µM
UO-31 renal
  TGI: > 100 µM

## C=C(C)C1CC=C(C)CC1 (centres undefined)
DLD-1 colon
  GI50: > 100 µM
  TGI: > 100 µM and 1610 µM
LXFL 529 NSCLC
  GI50: > 100 µM
  TGI: > 100 µM and 1550 µM
NCI-H23 lung
  GI50: > 100 µM
  TGI: > 100 µM and 1690 µM
OVCAR-8 ovarian
  GI50: > 100 µM
  TGI: > 100 µM and 1860 µM
SF-268 CNS
  GI50: > 100 µM
  TGI: > 100 µM and 1680 µM
SK-MEL-28 melanoma
  GI50: > 100 µM
  TGI: > 100 µM and 1680 µM
UACC-62 melanoma
  GI50: > 100 µM
  TGI: > 100 µM and 1550 µM
UO-31 renal
  GI50: > 100 µM
  TGI: > 100 µM and 1620 µM

## COC(=O)NC(=Nc1ccc(Oc2ccccc2)cc1NC=O)NC(=O)OC
DLD-1 colon
  TGI: > 100 µM
LXFL 529 NSCLC
  TGI: > 100 µM
NCI-H23 lung
  TGI: > 100 µM
OVCAR-8 ovarian
  TGI: 8.57 µM
SF-268 CNS
  TGI: > 100 µM
UACC-62 melanoma
  TGI: > 100 µM
UO-31 renal
  TGI: 69.6 µM

## O=C(CC1(O)C(=O)Nc2ccccc21)c1ccc(F)cc1 (centres undefined)
DLD-1 colon
  TGI: > 100 µM
LXFL 529 NSCLC
  TGI: > 100 µM
NCI-H23 lung
  TGI: > 100 µM
OVCAR-8 ovarian
  TGI: > 100 µM
SF-268 CNS
  TGI: > 100 µM
SK-MEL-28 melanoma
  TGI: > 100 µM
UACC-62 melanoma
  TGI: > 100 µM
UO-31 renal
  TGI: > 100 µM

## CSc1nc2c(nc(N)n2C2OC(COC(C)=O)C(OC(C)=O)C(OC(C)=O)C2OC(C)=O)c(=O)n1C (centres undefined)
DLD-1 colon
  TGI: > 100 µM
LXFL 529 NSCLC
  TGI: > 100 µM
NCI-H23 lung
  TGI: > 100 µM
OVCAR-8 ovarian
  TGI: > 100 µM
UACC-62 melanoma
  TGI: > 100 µM
UO-31 renal
  TGI: > 100 µM

## CC(=O)[CH-]C(=O)c1ccccc1.CC(=O)[CH-]C(=O)c1ccccc1.CC1(C)OCC(C2OC3OC(C)(C)OC3C2[O-])O1.CC1(C)OCC(C2OC3OC(C)(C)OC3C2[O-])O1.[Ti+4] (centres undefined)
DLD-1 colon
  GI50: 18.5 µM
  TGI: 52.5 µM
LXFL 529 NSCLC
  GI50: 11.5 µM
  TGI: 24 µM
NCI-H23 lung
  GI50: 18.2 µM
  TGI: 38.3 µM
OVCAR-8 ovarian
  GI50: 13.9 µM
  TGI: 34.3 µM
SF-268 CNS
  GI50: 11.6 µM
  TGI: 30 µM
SK-MEL-28 melanoma
  GI50: 14 µM
  TGI: 29.9 µM
UACC-62 melanoma
  GI50: 16.9 µM
  TGI: 39.6 µM

## CCC(C)[C@H](NC(=O)NC(=O)NC(=O)CI)C(=O)OC (some centres undefined)
BT-549 breast
  GI50: 10.6 µM
  TGI: 22.4 µM
NCI-H23 lung
  GI50: 16.3 µM
  TGI: 35.8 µM
OVCAR-8 ovarian
  GI50: 13.6 µM
  TGI: 29.3 µM
PC-3 prostate
  GI50: 12.2 µM
  TGI: 26.7 µM
SF-268 CNS
  GI50: 12.6 µM
  TGI: 28.5 µM
SK-MEL-28 melanoma
  GI50: 13.6 µM
  TGI: 27.5 µM
UACC-62 melanoma
  GI50: 11.3 µM
  TGI: 24.7 µM
UO-31 renal
  GI50: 1.73 µM
  TGI: 3.28 µM

## COc1ccc(CNC(C)C(=O)O)cc1 (centres undefined)
BT-549 breast
  TGI: > 100 µM
NCI-H23 lung
  TGI: > 100 µM
OVCAR-8 ovarian
  TGI: > 100 µM
PC-3 prostate
  TGI: > 100 µM
SF-268 CNS
  TGI: > 100 µM
SK-MEL-28 melanoma
  TGI: > 100 µM
UACC-62 melanoma
  TGI: > 100 µM
UO-31 renal
  TGI: > 100 µM

## c1ccc(Nc2nc(-c3ccccn3)cs2)nc1
BT-549 breast
  GI50: 0.713 µM
  TGI: > 26 µM
NCI-H23 lung
  GI50: 0.972 µM
  TGI: > 32.7 µM
OVCAR-8 ovarian
  GI50: 0.395 µM
  TGI: > 38.5 µM
PC-3 prostate
  GI50: 0.568 µM
  TGI: > 89.9 µM
SF-268 CNS
  GI50: 0.346 µM
  TGI: > 45.5 µM
SK-MEL-28 melanoma
  GI50: 1.5 µM
  TGI: > 100 µM
UACC-62 melanoma
  GI50: 0.48 µM
  TGI: > 43 µM
UO-31 renal
  GI50: 0.0737 µM
  TGI: 0.711 µM

## O=c1c2cccc(F)c2sc2c(N3CCNCC3)nc3ccccc3c12
BT-549 breast
  GI50: 1.58 µM
  TGI: 3.06 µM
NCI-H23 lung
  GI50: 1.57 µM
  TGI: 3.1 µM
OVCAR-8 ovarian
  GI50: 1.51 µM
  TGI: 3.42 µM
PC-3 prostate
  GI50: 1.26 µM
  TGI: 2.7 µM
SF-268 CNS
  GI50: 1.55 µM
  TGI: 3.26 µM
SK-MEL-28 melanoma
  GI50: 1.88 µM
  TGI: 3.35 µM
UACC-62 melanoma
  GI50: 1.66 µM
  TGI: 3.16 µM
UO-31 renal
  GI50: 0.597 µM
  TGI: 2.04 µM

## Cc1cccc2nc3cccc(C(=O)NCCNCCNCCNC(=O)c4cccc5nc6cccc(C)c6nc45)c3nc12
BT-549 breast
  GI50: 1.73 µM
  TGI: 6.25 µM
NCI-H23 lung
  GI50: < 0.012 µM
  TGI: 0.938 µM
OVCAR-8 ovarian
  GI50: < 0.01 µM
  TGI: 1.14 µM
PC-3 prostate
  GI50: < 0.0164 µM
  TGI: 4.63 µM
SF-268 CNS
  GI50: < 0.01 µM
  TGI: 1.7 µM
SK-MEL-28 melanoma
  GI50: 0.101 µM
  TGI: 4.37 µM
UACC-62 melanoma
  GI50: 0.0137 µM
  TGI: 2.01 µM
UO-31 renal
  GI50: 0.0238 µM

## CCCCCCC/C=C/[C@H]1O[C@]2(O)C(=O)C=C3C[C@@H](O[C@@H]4O[C@H](CO)[C@@H](O)C(O)[C@@H]4O)C[C@@H]3[C@H]2C=C1C (some centres undefined)
BT-549 breast
  GI50: 1.18 µM
  TGI: 5.53 µM
NCI-H23 lung
  GI50: 4.96 µM
  TGI: 13 µM
OVCAR-8 ovarian
  GI50: 1.01 µM
  TGI: 3.92 µM
PC-3 prostate
  GI50: 1.56 µM
  TGI: 11.7 µM
SF-268 CNS
  GI50: 4.47 µM
  TGI: 10.3 µM
SK-MEL-28 melanoma
  GI50: 3.97 µM
  TGI: 8.62 µM
UACC-62 melanoma
  GI50: 1.79 µM
  TGI: 6.96 µM
UO-31 renal
  GI50: 0.666 µM
  TGI: 2.36 µM

## CC1(C)CCCC(C)(C2CCC3(C)C2C(O)CC2C4(C)CCC(O)C(C)(C)C4C(O)CC23C)O1 (centres undefined)
BT-549 breast
  TGI: 28.5 µM
NCI-H23 lung
  TGI: 25.6 µM
OVCAR-8 ovarian
  TGI: 41.9 µM
PC-3 prostate
  TGI: 25.7 µM
SF-268 CNS
  TGI: 31.9 µM
SK-MEL-28 melanoma
  TGI: 28.2 µM
UACC-62 melanoma
  TGI: 27.5 µM
UO-31 renal
  TGI: 24.1 µM

## CCOC(=O)c1ccc2c(c1)nc(/C=C/c1ccc(Cl)cc1)n2-c1cc(C(C)(C)C)[nH]n1
BT-549 breast
  GI50: 4.54 µM
  TGI: 25.6 µM
NCI-H23 lung
  GI50: 19.3 µM
  TGI: > 100 µM
OVCAR-8 ovarian
  GI50: 5.31 µM
  TGI: 33.9 µM
PC-3 prostate
  GI50: 5.85 µM
  TGI: 47 µM
SF-268 CNS
  GI50: 5.86 µM
  TGI: > 100 µM
SK-MEL-28 melanoma
  GI50: 3.51 µM
  TGI: 40.3 µM
UACC-62 melanoma
  GI50: 1.47 µM
  TGI: 4.79 µM
UO-31 renal
  GI50: 2.71 µM
  TGI: 25.3 µM

## O=C(c1ccco1)c1c(C(F)(F)F)nc2ccc(C(F)(F)F)cc2[n+]1[O-]
BT-549 breast
  GI50: 24.1 µM
  TGI: 59.8 µM
NCI-H23 lung
  GI50: > 80.4 µM
  TGI: > 100 µM
OVCAR-8 ovarian
  GI50: 35.3 µM
  TGI: > 100 µM
PC-3 prostate
  GI50: 41.9 µM
  TGI: > 100 µM
SF-268 CNS
  GI50: 33.3 µM
  TGI: 99.5 µM
SK-MEL-28 melanoma
  GI50: 25.2 µM
  TGI: 80.6 µM
UACC-62 melanoma
  GI50: 44.2 µM
  TGI: > 100 µM
UO-31 renal
  GI50: 38.7 µM
  TGI: > 100 µM

## COC1=C(Br)C(O)C2(C=C1Br)CC(C(=O)NCCCCNC(=O)C1=NOC3(C=C(Br)C(OC)=C(Br)C3O)C1)=NO2 (centres undefined)
BT-549 breast
  TGI: > 100 µM
NCI-H23 lung
  TGI: > 100 µM
OVCAR-8 ovarian
  TGI: > 100 µM
PC-3 prostate
  TGI: 62.8 µM
SF-268 CNS
  TGI: 45.1 µM
SK-MEL-28 melanoma
  TGI: > 100 µM
UACC-62 melanoma
  TGI: > 100 µM
UO-31 renal
  TGI: > 100 µM

## Clc1cc2c(nn1)Nc1ccccc1S2
BT-549 breast
  GI50: > 100 µM
  TGI: > 100 µM
NCI-H23 lung
  GI50: > 100 µM
  TGI: > 100 µM
OVCAR-8 ovarian
  GI50: > 100 µM
  TGI: > 100 µM
PC-3 prostate
  GI50: > 100 µM
  TGI: > 100 µM
SF-268 CNS
  GI50: > 100 µM
  TGI: > 100 µM
SK-MEL-28 melanoma
  GI50: > 100 µM
  TGI: > 100 µM
UACC-62 melanoma
  GI50: > 100 µM
  TGI: > 100 µM
UO-31 renal
  GI50: > 100 µM
  TGI: > 100 µM
